Laboratory results: patent publication US7288676B2, “Arylphenyl-substituted cyclic ketoenols” (Bayer CropScience AG, priority 1998, dated 2007)

Experiments:
Assay type in all cases: in vivo
[1] = system: larvae of the green rice leaf-hopper (Nephotettix cincticeps); experiment: Nephotettix test; conditions: active compound 0.1 %, rice seedlings (Oryza sativa) dipped
Method: Nephotettix Test [table] To produce a suitable preparation of active compound, 1 part by weight of active compound is mixed with the stated amounts of solvent and emulsifier, and the concentrate is diluted with water to the desired concentration. Rice seedlings (Oryza sativa) are treated by being dipped into the preparation of active compound of the desired concentration and are populated with larvae of the green rice leaf-hopper (Nephotettix cincticeps) while the leaves are still moist. After the desired period of time, the kill in % is determined. 100% means that all leaf-hoppers have been killed; 0% means that none of the leaf-hoppers have been killed.

[2] = system: peach aphids (Myzus persicae); experiment: Myzus test; conditions: concentration of active compound 0.1 %, infested cabbage leaves (Brassica oleracea) dipped
Method: Myzus Test [table] To produce a suitable preparation of active compound, 1 part by weight of active compound is mixed with the stated amounts of solvent and emulsifier, and the concentrate is diluted with water to the desired concentration. Cabbage leaves (Brassica oleracea) which are heavily infested by peach aphids (Myzus persicae) are treated by being dipped into the preparation of active compound of the desired concentration. After the desired period of time, the kill in % is determined. 100% means that all aphids have been killed; 0% means that none of the aphids have been killed.

[3] = system: larvae of the mustard beetle (Phaedon cochleariae); experiment: Phaedon larvae test; conditions: concentration of active compound 0.1 %, cabbage leaves (Brassica oleracea) dipped
Method: Phaedon larvae Test [table] To produce a suitable preparation of active compound, 1 part by weight of active compound is mixed with the stated amounts of solvent and emulsifier, and the concentrate is diluted with water to the desired concentration. Cabbage leaves (Brassica oleracea) are treated by being dipped into the preparation of active compound of the desired concentration and are populated with larvae of the mustard beetle (Phaedon cochleariae) while the leaves are still moist. After the desired period of time, the kill in % is determined. 100% means that all […] have been killed.

CCOC1CCC2(CC1)NC(=O)C(c1c(C)cc(-c3ccc(Cl)cc3)cc1C)=C2O (centres unmarked) [drawing 173]
Kill in % after 6 days [1]: 100%

CCOC1CCC2(CC1)NC(=O)C(c1c(C)cc(-c3ccc(Cl)cc3)cc1C)=C2O (centres unmarked) [drawing 171]
Kill in % after 6 days [2]: 95%

COC1CCC2(CC1)NC(=O)C(c1c(C)cc(-c3ccc(Cl)cc3)cc1Cl)=C2O (centres unmarked) [drawing 172]
Kill in % after 6 days [1]: 100%

COC1CCC2(CC1)NC(=O)C(c1c(C)cc(-c3ccc(Cl)cc3)cc1Cl)=C2O (centres unmarked) [drawing 174]
Kill in % after 7 days [3]: 100%

CCOC1CCC2(CC1)NC(=O)C(c1c(C)cc(-c3ccc(Cl)cc3)cc1C)=C2O (centres unmarked) [drawing 175]
Kill in % after 7 days [3]: 100%
